Results published in US8642602B2, “Method of inhibiting fibrogenesis and treating fibrotic disease” (University of Georgia Research Foundation, Inc., priority 2009, dated 2014).

Assays:
EZH2 = settings: Tan J et al, 2007; cited from earlier work
[1] = test system: α1 (I) collagen and TIMP-1 transcripts; experiment: Acute CCl4 liver injury, liver transcripts by qPCR; format: in vivo, C57Bl6 mice; settings: mice, 15 mg/m^2 IP 2 hours prior to single dose of CCl4, sacrificed 24 h after
Protocol: FIG. 5—A.) and B.) 5×10^6 rat MFBs were electroporated as outlined “Materials and methods”. 2 μgs control siRNA or siRNA designed to target rat EZH2 was used per transfection. Total RNA was prepared from control or rat EZH2 siRNA transfected cells 48 h after the electroporation. First strand cDNA was synthesised which was then utilised as a template in qPCR using primers for specific amplification of EZH2 (in A.) and PPARγ (in B.). C.) Fully differentiated MFBs were treated with 1 μM 3-deazaneplanocin A or vehicle for 72 h at which time total RNA was prepared from control or drug treated cells. First strand cDNA was synthesised which was then utilised as a template in qPCR using primers for specific amplification of PPARγ. D.) Freshly isolated rat HSC were plated out onto plastic in two separate dishes and one dish treated with 1 μM 3-deazaneplanocin A at 12 h following the HSC isolation. […] Results are expressed as percent control of 3-deazaneplanocin A and olive oil vehicle injected mice (data not included in the graph).
3 deazaneplanocin A was given to two groups of four C57Bl6 mice (15 mg/m^2 which was calculated to be 0.428 μg of drug per g body weight of a mouse) was given IP 2 hours prior to a single dose of CCl4 (CCl4/olive oil in a 1:1 [vol/vol] ratio at 1 μl per g body weight). […]

hepatic stellate cells = experiment: Induction of fibrogenic genes in cultured hepatic stellate cells; format: cell-based, rat; settings: freshly isolated quiescent hepatic stellate cells in culture
From the text: EZH2 is therefore a negative regulator of PPARγ transcription in myofibroblasts, but also appears to play a wider regulatory role in promoting MTD and wound-healing. Furthermore, the stimulation of EZH2 expression and subsequent methylation of H3K27 in the downstream exons of the PPARγ gene is identified as a second mechanism through which MeCP2 achieves transcriptional silencing of PPARγ. The combined effect of H3K9 methylation and HP1α binding at the 5′ end of the PPARγ gene with H3K27 methylation and PRC1 recruitment in the downstream exons would be to prevent both transcriptional initiation and elongation which reflects the biological importance of suppressing PPARγ expression for MTD and wound-healing. […]
Total RNA was purified from isolated cells using the Total RNA purification kit (Qiagen, UK) following the manufacturer's instructions and was used to generate first strand cDNA utilising a random hexamer primer [p(dN)6] and MMLV reverse transcriptase. […] After each run, a dissociation curve was performed to ensure that no primer dimers contaminated the quantification and that the product had the expected melting temperature. All PCR reactions were normalized to the internal control and relative level of transcriptional difference calculated using the following equation: [1/(2A)]×100.

collagen I = experiment: Further testing: fibrogenic activity measured by production of collagen I; format: cell-based; settings: 1 μM, one dose at start of culturing, 7 days (FIG. 11)
From the text: RNA was also isolated on days 4 and 7.

Row | Structure (SMILES) | effect on cellular EZH2 (EZH2) | induction of transcripts for TIMP-1 in injured liver [1] | induction of transcripts for α1 (I) collagen in injured liver [1] | induction of fibrogenic gene al (I) collagen (hepatic stellate cells) | induction of fibrogenic gene tissue inhibitor of metalloproteinase-1 (TIMP-1) (hepatic stellate cells) | inhibition of collagen I production at 7 days (collagen I)
1 | Nc1nccc2c1ncn2[C@@H]1C=C(CO)[C@@H](O)[C@H]1O [Compound 3, 3-deazaneplanocin A] | depletes cells of EZH2 | suppressed the induction | suppressed the induction | suppressed the induction | suppressed the induction | 
2 | Nc1nc(Cl)cc2c1ncn2C1COC(CO)O1 (stereo not drawn) [Compound 8] |  |  |  |  |  | significant inhibition
